From patent US11098055B2, “Ester ACC inhibitors and uses thereof” (Gilead Apollo, LLC, priority 2015, dated 2021)
Converted amounts (≈) assume the structure as drawn.

Columns and labels:
[1] = target: hACC2 (Homo sapiens, UniProt O00763); assay: In vitro ACC2 inhibition assay (ADP-Glo), human ACC2; format: biochemical
Outline: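 ADP-Glo luminescent ADP detection with 5 nM ACC2, 20 μM ATP, 20 μM acetyl-CoA, 12 mM NaHCO3, 2 mM DTT, 5% DMSO; compound (30 μM-0.00051 μM, 11 points) preincubated 15 min, reaction 60 min at room temperature. Percent inhibition against DMSO and positive controls; IC50 by four-parameter nonlinear fit.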

[2] = tested on: C. krusei ATCC 6258; assay: Anti-Fungal (Candida) Activity Assay, broth microtiter MIC; format: cell-based, Candida krusei; conditions: Pichia kudriavzevii, ATCC6258, 48 h, 3 replicates, MIC read at 48 h
Outline: (§1)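 Broth microdilution per CLSI M27-A3 in RPMI 1640 + MOPS, at a final inoculum of 2.5×10^3 CFU/mL. Compound DMSO stocks were diluted in water to a 128 μg/mL working solution. MIC was read visually against the growth control at 48 h.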

[3] = tested on: C. albicans ATCC 90028; assay: as above; format: cell-based; conditions: ATCC90028, 48 h, 3 replicates, MIC read at 48 h
Outline: as §1

[4] = tested on: C. parapsilosis ATCC 22019; assay: as above; format: cell-based; conditions: Lodderomyces parapsilosis, ATCC22019, 48 h, 3 replicates, MIC read at 48 h
Outline: as §1

hACC2, sequence (O00763 whole entry): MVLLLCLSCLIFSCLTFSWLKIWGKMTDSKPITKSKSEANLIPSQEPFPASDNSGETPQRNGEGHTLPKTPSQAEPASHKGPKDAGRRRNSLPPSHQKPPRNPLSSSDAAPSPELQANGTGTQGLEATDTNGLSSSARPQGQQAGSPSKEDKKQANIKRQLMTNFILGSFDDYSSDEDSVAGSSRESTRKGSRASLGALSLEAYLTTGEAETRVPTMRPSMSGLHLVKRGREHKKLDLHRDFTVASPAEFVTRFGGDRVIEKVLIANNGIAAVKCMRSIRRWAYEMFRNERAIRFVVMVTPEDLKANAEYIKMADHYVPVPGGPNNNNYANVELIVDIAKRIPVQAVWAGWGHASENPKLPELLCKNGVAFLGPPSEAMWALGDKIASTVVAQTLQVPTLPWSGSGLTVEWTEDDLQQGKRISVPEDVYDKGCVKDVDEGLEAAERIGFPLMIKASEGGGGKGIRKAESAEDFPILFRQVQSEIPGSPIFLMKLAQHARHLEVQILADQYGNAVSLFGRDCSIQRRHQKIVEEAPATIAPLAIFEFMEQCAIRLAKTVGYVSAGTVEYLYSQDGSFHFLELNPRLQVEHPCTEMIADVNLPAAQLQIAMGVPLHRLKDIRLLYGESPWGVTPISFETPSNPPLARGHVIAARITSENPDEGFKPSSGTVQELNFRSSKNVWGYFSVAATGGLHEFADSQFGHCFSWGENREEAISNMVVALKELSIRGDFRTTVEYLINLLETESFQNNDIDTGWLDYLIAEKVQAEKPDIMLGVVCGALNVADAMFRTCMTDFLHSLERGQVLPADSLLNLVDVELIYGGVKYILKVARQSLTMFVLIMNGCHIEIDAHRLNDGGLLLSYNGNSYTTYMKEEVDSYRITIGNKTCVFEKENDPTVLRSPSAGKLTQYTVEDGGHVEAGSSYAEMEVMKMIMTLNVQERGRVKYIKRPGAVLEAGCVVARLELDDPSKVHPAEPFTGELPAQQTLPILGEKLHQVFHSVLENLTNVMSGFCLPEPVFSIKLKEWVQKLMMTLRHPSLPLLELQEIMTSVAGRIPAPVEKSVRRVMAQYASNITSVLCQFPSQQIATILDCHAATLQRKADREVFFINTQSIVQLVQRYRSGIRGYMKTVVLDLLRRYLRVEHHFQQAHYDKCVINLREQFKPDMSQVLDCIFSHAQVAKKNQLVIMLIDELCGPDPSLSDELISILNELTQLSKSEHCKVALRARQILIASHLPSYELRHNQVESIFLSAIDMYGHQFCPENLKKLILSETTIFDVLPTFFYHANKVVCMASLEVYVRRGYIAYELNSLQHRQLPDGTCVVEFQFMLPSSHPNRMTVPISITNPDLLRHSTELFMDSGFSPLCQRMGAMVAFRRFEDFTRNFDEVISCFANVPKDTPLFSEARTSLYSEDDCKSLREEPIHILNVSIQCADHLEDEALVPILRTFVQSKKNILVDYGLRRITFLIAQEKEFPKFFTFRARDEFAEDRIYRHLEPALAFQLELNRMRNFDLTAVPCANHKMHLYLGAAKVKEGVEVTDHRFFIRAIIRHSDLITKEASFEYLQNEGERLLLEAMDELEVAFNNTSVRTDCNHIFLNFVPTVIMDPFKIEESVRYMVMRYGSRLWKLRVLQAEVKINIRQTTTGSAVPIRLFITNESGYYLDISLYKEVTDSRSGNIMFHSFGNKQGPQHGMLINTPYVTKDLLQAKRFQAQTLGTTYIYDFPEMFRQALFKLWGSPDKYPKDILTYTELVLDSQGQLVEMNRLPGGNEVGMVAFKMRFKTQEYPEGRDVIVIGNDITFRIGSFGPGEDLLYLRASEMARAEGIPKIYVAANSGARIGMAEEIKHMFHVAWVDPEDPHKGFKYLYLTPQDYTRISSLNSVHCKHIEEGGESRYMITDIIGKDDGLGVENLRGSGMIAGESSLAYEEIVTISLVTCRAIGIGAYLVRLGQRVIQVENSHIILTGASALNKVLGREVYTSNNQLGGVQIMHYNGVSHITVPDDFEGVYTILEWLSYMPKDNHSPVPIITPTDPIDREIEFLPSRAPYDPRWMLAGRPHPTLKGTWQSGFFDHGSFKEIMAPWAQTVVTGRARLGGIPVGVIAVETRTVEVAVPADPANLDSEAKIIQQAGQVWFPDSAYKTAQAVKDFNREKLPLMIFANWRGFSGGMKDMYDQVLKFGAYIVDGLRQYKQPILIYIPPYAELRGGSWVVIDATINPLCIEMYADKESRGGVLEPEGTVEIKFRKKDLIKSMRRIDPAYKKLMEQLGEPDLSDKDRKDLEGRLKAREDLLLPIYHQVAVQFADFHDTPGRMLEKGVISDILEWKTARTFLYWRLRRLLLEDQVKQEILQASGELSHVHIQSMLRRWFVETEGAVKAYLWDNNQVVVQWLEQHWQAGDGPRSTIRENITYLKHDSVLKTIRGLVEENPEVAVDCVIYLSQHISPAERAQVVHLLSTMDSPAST

Structure (SMILES) | IC50 ([1]; Table 2b (additional results)) [nM] | MIC ([2]; Table 3b (additional results)) [µg/mL] | MIC ([3]; Table 3b (additional results)) [µg/mL] | MIC ([4]; Table 3b (additional results)) [µg/mL] | IC50 ([1]; Table 2a) [nM] | MIC ([2]; Table 3a) [µg/mL] | MIC ([3]; Table 3a) [µg/mL] | MIC ([4]; Table 3a) [µg/mL]
CCOC(=O)c1sc2c(c1C)c(=O)n(C(C)(C)C(=O)N1CCCC1)c(=O)n2C[C@H](O)c1cc(F)ccc1OC [Compound I-22, (R)-ethyl 1-(2-(5-fluoro-2-methoxyphenyl)-2-hydroxyethyl)-5-methyl-3-(2-methyl-1-oxo-1-(pyrrolidin-1-yl)propan-2-yl)-2,4-dioxo-1,2,3,4-tetrahydrothieno[2,3-d]pyrimidine-6-carboxylate] | 10 to 40 | 2.1 to 4 (≈ 3.74 to 7.12 µM) | 2.1 to 4 (≈ 3.74 to 7.12 µM) | 0.25 to 1 (≈ 0.445 to 1.78 µM) | – | – | – | –
CCOC(=O)c1sc2c(c1C)c(=O)n(C(C)(C)C(=O)N1CCCC1)c(=O)n2C[C@H](OCCOC)c1cc(F)ccc1OC [Compound I-13, (R)-ethyl 1-(2-(5-fluoro-2-methoxyphenyl)-2-(2-methoxy-ethoxy)ethyl)-5-methyl-3-(2-methyl-1-oxo-1-(pyrrolidin-1-yl)propan-2-yl)-2,4-dioxo-1,2,3,4-tetrahydrothieno[2,3-d]pyrimidine-6-carboxylate] | – | 2.1 to 4 (≈ 3.39 to 6.45 µM) | 2.1 to 4 (≈ 3.39 to 6.45 µM) | 2.1 to 4 (≈ 3.39 to 6.45 µM) | 10 to 40 | > 4.1 | > 4.1 | > 4.1
CCNC(=O)[C@@H](C)n1c(=O)c2c(C)c(C(=O)OCC)sc2n(C[C@H](OCCC#N)c2cc(F)ccc2OC)c1=O [Compound I-41, ethyl 1-((R)-2-(2-cyanoethoxy)-2-(5-fluoro-2-methoxy-phenyl)ethyl)-3-((R)-1-(ethylamino)-1-oxopropan-2-yl)-5-methyl-2,4-dioxo-1,2,3,4-tetrahydrothieno[2,3-d]pyrimidine-6-carboxylate] | 10 to 40 | 2.1 to 4 (≈ 3.65 to 6.96 µM) | 2.1 to 4 (≈ 3.65 to 6.96 µM) | 2.1 to 4 (≈ 3.65 to 6.96 µM) | – | – | – | –
CCOC(=O)c1sc2c(c1C)c(=O)n(C(C)(C)C(N)=O)c(=O)n2C[C@H](OCCC#N)c1cc(F)ccc1OC [Compound I-14, (R)-ethyl 3-(1-amino-2-methyl-1-oxopropan-2-yl)-1-(2-(2-cyanoethoxy)-2-(5-fluoro-2-methoxyphenyl)ethyl)-5-methyl-2,4-dioxo-1,2,3,4-tetrahydro-thieno[2,3-d]pyrimidine-6-carboxylate] | – | 2.1 to 4 (≈ 3.75 to 7.14 µM) | 2.1 to 4 (≈ 3.75 to 7.14 µM) | 1.1 to 2 (≈ 1.96 to 3.57 µM) | 3 to 10 | > 4.1 | > 4.1 | > 4.1
CCOC(=O)c1sc2c(c1C)c(=O)n(C(C)(C)C(=O)NC(C)C)c(=O)n2CCc1cc(F)ccc1OC [Compound I-40, ethyl 1-(5-fluoro-2-methoxyphenethyl)-3-(1-(isopropylamino)-2-methyl-1-oxopropan-2-yl)-5-methyl-2,4-dioxo-1,2,3,4-tetrahydrothieno[2,3-d]pyrimidine-6-carboxylate] | 10 to 40 | 2.1 to 4 (≈ 3.94 to 7.5 µM) | 2.1 to 4 (≈ 3.94 to 7.5 µM) | 0.25 to 1 (≈ 0.468 to 1.87 µM) | – | – | – | –
CCOC(=O)c1sc2c(c1C)c(=O)n([C@@H](C)C(=O)NC(C)C)c(=O)n2C[C@H](O)c1cc(F)ccc1OC [Compound I-44, ethyl 1-((R)-2-(5-fluoro-2-methoxyphenyl)-2-hydroxyethyl)-3-((S)-1-(isopropylamino)-1-oxopropan-2-yl)-5-methyl-2,4-dioxo-1,2,3,4-tetrahydrothieno[2,3-d]pyrimidine-6-carboxylate] | ≥ 40 | 2.1 to 4 (≈ 3.92 to 7.47 µM) | 2.1 to 4 (≈ 3.92 to 7.47 µM) | 2.1 to 4 (≈ 3.92 to 7.47 µM) | – | – | – | –
CCOC(=O)c1sc2c(c1C)c(=O)n(C(C)(C)C(=O)NC(C)C)c(=O)n2C[C@H](OCC#N)c1cc(F)ccc1OC [Compound I-33, ethyl (R)-1-(2-(cyanomethoxy)-2-(5-fluoro-2-methoxy-phenyl)ethyl)-3-(1-(isopropylamino)-2-methyl-1-oxopropan-2-yl)-5-methyl-2,4-dioxo-1,2,3,4-tetrahydrothieno[2,3-d]pyrimidine-6-carboxylate] | 3 to 10 | 2.1 to 4 (≈ 3.57 to 6.8 µM) | 0.25 to 1 (≈ 0.425 to 1.7 µM) | 2.1 to 4 (≈ 3.57 to 6.8 µM) | – | – | – | –
CCOC(=O)c1sc2c(c1C)c(=O)n([C@@H](C)C(=O)NC(C)C)c(=O)n2C[C@H](OCCC#N)c1cc(F)ccc1OC [Compound I-20, ethyl 1-((R)-2-(2-cyanoethoxy)-2-(5-fluoro-2-methoxy-phenyl)ethyl)-3-((S)-1-(isopropylamino)-1-oxopropan-2-yl)-5-methyl-2,4-dioxo-1,2,3,4-tetrahydrothieno[2,3-d]pyrimidine-6-carboxylate] | 3 to 10 | 1.1 to 2 (≈ 1.87 to 3.4 µM) | 2.1 to 4 (≈ 3.57 to 6.8 µM) | 2.1 to 4 (≈ 3.57 to 6.8 µM) | – | – | – | –
CCOC(=O)c1sc2c(c1C)c(=O)n([C@H](C)C(=O)N1CCCC1)c(=O)n2C[C@H](OCCC#N)c1cc(F)ccc1OC [Compound I-24, ethyl 1-((R)-2-(2-cyanoethoxy)-2-(5-fluoro-2-methoxy-phenyl)ethyl)-5-methyl-2,4-dioxo-3-((R)-1-oxo-1-(pyrrolidin-1-yl)propan-2-yl)-1,2,3,4-tetrahydrothieno[2,3-d]pyrimidine-6-carboxylate] | 3 to 10 | 2.1 to 4 (≈ 3.5 to 6.66 µM) | 2.1 to 4 (≈ 3.5 to 6.66 µM) | 0.25 to 1 (≈ 0.416 to 1.66 µM) | – | – | – | –
CCOC(=O)c1sc2c(c1C)c(=O)n([C@H](C)C(=O)NC(C)C)c(=O)n2C[C@H](OCCC#N)c1cc(F)ccc1OC [Compound I-21, ethyl 1-((R)-2-(2-cyanoethoxy)-2-(5-fluoro-2-methoxyphenyl)ethyl)-3-((R)-1-(isopropylamino)-1-oxopropan-2-yl)-5-methyl-2,4-dioxo-1,2,3,4-tetrahydrothieno[2,3-d]pyrimidine-6-carboxylate] | 0.3 to 3 | 2.1 to 4 (≈ 3.57 to 6.8 µM) | 1.1 to 2 (≈ 1.87 to 3.4 µM) | 2.1 to 4 (≈ 3.57 to 6.8 µM) | – | – | – | –
CCOC(=O)c1sc2c(c1C)c(=O)n(C(C)(C)C(N)=O)c(=O)n2C[C@H](OCCOC)c1cc(F)ccc1OC [Compound I-10, (R)-ethyl 3-(1-amino-2-methyl-1-oxopropan-2-yl)-1-(2-(5-fluoro-2-methoxyphenyl)-2-(2-methoxyethoxy)ethyl)-5-methyl-2,4-dioxo-1,2,3,4-tetrahydrothieno[2,3-d]pyrimidine-6-carboxylate] | ≥ 40 | 2.1 to 4 (≈ 3.71 to 7.07 µM) | 2.1 to 4 (≈ 3.71 to 7.07 µM) | 2.1 to 4 (≈ 3.71 to 7.07 µM) | ≥ 40 | > 4.1 | > 4.1 | > 4.1
CCOC(=O)c1sc2c(c1C)c(=O)n([C@@H](C)C(=O)N(C)C(C)C)c(=O)n2C[C@H](OCCC#N)c1cc(F)ccc1OC [Compound I-28, ethyl 1-((R)-2-(2-cyanoethoxy)-2-(5-fluoro-2-methoxy-phenyl)-ethyl)-3-((S)-1-(isopropyl(methyl)amino)-1-oxopropan-2-yl)-5-methyl-2,4-dioxo-1,2,3,4-tetrahydrothieno[2,3-d]pyrimidine-6-carboxylate] | 3 to 10 | 0.25 to 1 (≈ 0.415 to 1.66 µM) | 2.1 to 4 (≈ 3.48 to 6.64 µM) | 2.1 to 4 (≈ 3.48 to 6.64 µM) | – | – | – | –
CCOC(=O)c1sc2c(c1C)c(=O)n(C(C)(C)C(=O)NC(C)C)c(=O)n2C[C@H](OCC(C)(C)C#N)c1cc(F)ccc1OC [Compound I-37, ethyl (R)-1-(2-(2-cyano-2-methylpropoxy)-2-(5-fluoro-2-methoxyphenyl)ethyl)-3-(1-(isopropylamino)-2-methyl-1-oxopropan-2-yl)-5-methyl-2,4-dioxo-1,2,3,4-tetrahydrothieno[2,3-d]pyrimidine-6-carboxylate] | 10 to 40 | 2.1 to 4 (≈ 3.33 to 6.34 µM) | 0.25 to 1 (≈ 0.396 to 1.59 µM) | 2.1 to 4 (≈ 3.33 to 6.34 µM) | – | – | – | –
